Values after ≈ are worked out from the molar mass of the structure shown. Read-outs that look alike come from different tables or passages of the source. Blank lines part the entries; values can stand above or below the compound they belong to.
Tests used:
physchem = conditions: organic solvent or mixture, thermodynamic from solid

solubility (physchem; Solubility (class)): 30 to 100 mg/mL (≈ 36.5 to 122 mM)
Compound: CO[C@H]1/C=C/O[C@@]2(C)Oc3c(C)c(O)c4c(O)c(c(/C=N/N5CCN(C)CC5)c(O)c4c3C2=O)NC(=O)/C(C)=C\C=C\[C@H](C)[C@H](O)[C@@H](C)[C@@H](O)[C@@H](C)[C@H](OC(C)=O)[C@@H]1C [Rifampicin]

Solubility (class) (solvent 70:30 (v/v) DMSO:NMP): Freely soluble | Solubility (class) (solvent Benzyl Benzoate): Slightly soluble | Solubility (class) (solvent DMSO): Freely soluble | Solubility (class) (solvent NMP): Freely soluble | Solubility (class) (solvent Triacetin): Slightly soluble | solubility (physchem; Solubility (class), solvent PEG 300): 30 to 100 mg/mL (≈ 98 to 327 mM) | solubility (physchem; Solubility, solvent 70:30 (v/v) DMSO:NMP): 850 mg/mL (≈ 2780 mM) | solubility (physchem; Solubility, solvent Benzyl Benzoate): 5 mg/mL (≈ 16.3 mM) | solubility (physchem; Solubility, solvent DMSO): 900 mg/mL (≈ 2940 mM) | solubility (physchem; Solubility, solvent NMP): 800 mg/mL (≈ 2610 mM) | solubility (physchem; Solubility, solvent PEG 300): 50 mg/mL (≈ 163 mM) | solubility (physchem; Solubility, solvent Triacetin): 5 mg/mL (≈ 16.3 mM)
Compound: OC(Cn1cncn1)(Cn1cncn1)c1ccc(F)cc1F [Fluconazole]

solubility (physchem; Solubility): < 0.1 mg/mL
Compound: NC[C@H]1O[C@H](O[C@H]2[C@H](O)[C@@H](O[C@H]3O[C@H](CO)[C@@H](O)[C@H](N)[C@H]3O)[C@H](N)C[C@@H]2N)[C@H](N)C[C@@H]1O [Tobramycin]

solubility (physchem; Solubility (class)): 30 to 100 mg/mL (≈ 167 to 555 mM)
Compound: CC(=O)Oc1ccccc1C(=O)O [Acetylsalicylic acid]

solubility (physchem; Solubility (class)): 30 to 100 mg/mL
Compound: O=C(O)c1cc(=O)c2c(OCC(O)COc3cccc4oc(C(=O)O)cc(=O)c34)cccc2o1 [Cromolyn sodium]

Compound: Albuterol sulfate
Solubility (class) (solvent 70:30 (v/v) DMSO:NMP): Slightly soluble | solubility (solvent 70:30 (v/v) DMSO:NMP): 5 mg/mL | Solubility (class) (solvent Benzyl Benzoate): Practically insoluble | solubility (solvent Benzyl Benzoate): <0.1 mg/mL | Solubility (class) (solvent DMSO): Slightly soluble | solubility (solvent DMSO): 5 mg/mL | Solubility (class) (solvent NMP): Practically insoluble | solubility (solvent NMP): <0.1 mg/mL | Solubility (class) (solvent PEG 300): Practically insoluble | solubility (solvent PEG 300): <0.1 mg/mL | Solubility (class) (solvent Triacetin): Practically insoluble | solubility (solvent Triacetin): <0.1 mg/mL

Source: patent US9125805B2, “Stable formulations for parenteral injection of small molecule drugs” (Xeris Pharmaceuticals, Inc., priority 2012, dated 2015)
